According to article PMC7435711, “Synthesis and Pharmacological Effects of Diosgenin–Betulinic Acid Conjugates” (Molecules, 2020):
Like-named read-outs stand apart in the source and are kept apart here.

Experiments:
[1] = Cytotoxicity screening test, BJ reference cells; conditions: human, BJ normal foreskin fibroblasts
Description: (§1) Doxorubicin was used as a positive control.
(§2) The screening cell lines, T-lymphoblastic leukemia (CEM), cervical carcinoma (HeLa), breast carcinoma (MCF7), and human foreskin fibroblasts (BJ) were obtained from the American Type Culture Collection (Manassas, VA, USA). Cells were cultured in DMEM (Dulbecco’s Modified Eagle Medium, Sigma Aldrich, Darmstadt, Germany). Media used were supplemented with 10% fetal bovine serum, 2 mM L-glutamine, and 1% penicillin-streptomycin (all from Sigma Aldrich, Darmstadt, Germany). The cell lines were maintained under standard cell culture conditions at 37 °C and 5% CO2 in humid environment. Cells were subcultured twice or three times a week using the standard trypsinization procedure.

[2] = system: CEM, MCF7, HeLa, HCT 116 cancer cell lines and BJ fibroblasts; experiment: Cytotoxicity screening tests, summary statements over the cell line panel; conditions: for IC50: Homo sapiens, 72 h, read-out: IC50 against all tested cell lines
Description: as §1, §2

[3] = system: human colon carcinoma (HCT 116) cells; experiment: Cytotoxicity screening test, HCT 116; conditions: HCT-116, 72 h, read-out: Cytotoxicity IC50, HCT 116
[4] = system: human cervical cancer (HeLa) cells; experiment: Cytotoxicity screening test, HeLa; conditions: 72 h, read-out: Cytotoxicity IC50, HeLa
Description: as §1, §2

[5] = system: human T-lymphoblastic leukemia (CEM) cells; experiment: Cytotoxicity screening test, CEM; conditions: CCRF-CEM, 72 h, read-out: Cytotoxicity IC50, CEM
Description: as §1, §2

[6] = system: human breast adenocarcinoma (MCF7) cells; experiment: Cytotoxicity screening test, MCF7; conditions: MCF7, 72 h, read-out: Cytotoxicity IC50, MCF7
Description: as §1, §2

[7] = in vitro; conditions: human
Description: as §1, §2

[8] = system: CEM, MCF7, HeLa, HCT 116 cancer cell lines and BJ fibroblasts
Description: as §1, §2

Row | Compound | IC50 at 72 h [1] [µM] | IC50 [2] [µM] | IC50 [3] [µM] | IC50 [4] [µM] | IC50 [5] [µM] | IC50 [6] [µM] | Cytotoxicity (in words) ([2]; summary over the tested cell lines) | IC50 at 72 h [7] [µM] | Cytotoxicity (in words) [8]
1 | C[C@@H]1CC[C@@]2(OC1)O[C@H]1C[C@H]3[C@@H]4CC=C5C[C@@H](O)CC[C@]5(C)[C@H]4CC[C@]3(C)[C@H]1[C@@H]2C [Compound 1, (3β,25R)-spirost-5-en-3-ol, reference compound] | > 50 | > 50 | > 50 | > 50 | > 50 | > 50 | – | – | –
2 | C=C(C)[C@@H]1CC[C@]2(C(=O)O)CC[C@]3(C)[C@H](CC[C@@H]4[C@@]5(C)CC[C@H](O)C(C)(C)[C@@H]5CC[C@]43C)[C@@H]12 [Compound 2, 3β-hydroxylup-20(29)-en-28-oic acid, reference compound] | > 50 | > 50 | > 50 | > 50 | > 50 | > 50 | no cytotoxicity | – | –
3 | C=C(C)[C@@H]1CC[C@]2(C(=O)OCc3ccccc3)CC[C@]3(C)[C@H](CC[C@@H]4[C@@]5(C)CC[C@H](O)C(C)(C)[C@@H]5CC[C@]43C)[C@@H]12 [Compound 3, Benzyl (3β)-3-hydroxylup-20(29)-en-28-oate] | – | > 50 | > 50 | > 50 | > 50 | > 50 | – | > 50 | no cytotoxicity
4 | C#CCO[C@H]1CC[C@]2(C)[C@H]3CC[C@@H]4[C@H]5[C@H](C(=C)C)CC[C@]5(C(=O)OCc5ccccc5)CC[C@@]4(C)[C@]3(C)CC[C@H]2C1(C)C [Compound 4, Benzyl (3β)-3-(prop-2-yn-1-yloxy)lup-20(29)-en-28-oate] | – | > 50 | > 50 | > 50 | > 50 | > 50 | – | > 50 | no cytotoxicity
5 | C=C(C)[C@@H]1CC[C@]2(C(=O)OCc3ccccc3)CC[C@]3(C)[C@H](CC[C@@H]4[C@@]5(C)CC[C@H](OCc6cn(CCCCC(=O)O)nn6)C(C)(C)[C@@H]5CC[C@]43C)[C@@H]12 [Compound 5, 5-[4-({[(3β)-28-(Benzyloxy)-28-oxolup-20(29)-en-3-yl]oxy}-methyl)-1H-1,2,3-triazol-1-yl]pentanoic acid] | – | – | 19.4 ± 2.1 | 20.3 ± 4.4 | 15.8 ± 0.6 | 49.5 ± 0.7 | – | > 50 | –
6 | C=C(C)[C@@H]1CC[C@]2(C(=O)O)CC[C@]3(C)[C@H](CC[C@@H]4[C@@]5(C)CC[C@H](OCc6cn(CCCCC(=O)O)nn6)C(C)(C)[C@@H]5CC[C@]43C)[C@@H]12 [Compound 6, (3β)-3-{[1-(4-Carboxybutyl)-1H-1,2,3-triazol-4-yl]methoxy}lup-20(29)-en-28-oic Acid] | – | – | > 50 | > 50 | > 50 | > 50 | – | > 50 | inactive
7 | C=C(C)[C@@H]1CC[C@]2(C(=O)OCc3ccccc3)CC[C@]3(C)[C@H](CC[C@@H]4[C@@]5(C)CC[C@H](OCc6cn(CCCCC(=O)O[C@H]7CC[C@@]8(C)C(=CC[C@H]9[C@@H]%10C[C@@H]%11O[C@]%12(CC[C@@H](C)CO%12)[C@@H](C)[C@@H]%11[C@@]%10(C)CC[C@@H]98)C7)nn6)C(C)(C)[C@@H]5CC[C@]43C)[C@@H]12 [Compound 7, Benzyl (3β)-3-[(1-{5-oxo-5-[(3β,25R)-spirost-5-en-3-yloxy]pentyl}-1H-1,2,3-triazol-4-yl)methoxy]lup-20(29)-en-28-oate] | – | – | > 50 | > 50 | 6.5 ± 1.1 | > 50 | – | 46.2 ± 2.8 | medium to weak multifarious cytotoxicity
8 | C=C(C)[C@@H]1CC[C@]2(C(=O)O)CC[C@]3(C)[C@H](CC[C@@H]4[C@@]5(C)CC[C@H](OCc6cn(CCCCC(=O)O[C@H]7CC[C@@]8(C)C(=CC[C@H]9[C@@H]%10C[C@@H]%11O[C@]%12(CC[C@@H](C)CO%12)[C@@H](C)[C@@H]%11[C@@]%10(C)CC[C@@H]98)C7)nn6)C(C)(C)[C@@H]5CC[C@]43C)[C@@H]12 [Compound 8, (3β)-3-[(1-{5-Oxo-5-[(3β,25R)-spirost-5-en-3-yloxy]pentyl}-1H-1,2,3-triazol-4-yl]methoxy}lup-20(29)-en-28-oic Acid] | – | – | > 50 | > 50 | > 50 | > 50 | – | > 50 | –
9 | COc1cccc2c1C(=O)c1c(O)c3c(c(O)c1C2=O)C[C@@](O)(C(=O)CO)C[C@@H]3O[C@H]1C[C@H](N)[C@H](O)[C@H](C)O1 [Doxorubicin, reference compound] | 0.278 ± 0.036 | – | 0.524 ± 0.177 | – | – | – | – | – | –
